Values of other authors, collected in US20220288158A1, “NOVEL ENTERIC COMBINATION THERAPY” (priority 2009, published 2022).

System: patients with constipation
Details: for effect on bowel activity when used in constipation: literature, Brandt L J et al 2009

Compound	effect on bowel activity when used in constipation	use of vancomycin alone in constipation (not all patients respond, and respond but partially)
CC[C@H]1OC(=O)[C@H](C)[C@@H](O[C@H]2C[C@@](C)(OC)[C@@H](O)[C@H](C)O2)[C@H](C)[C@@H](O[C@@H]2O[C@H](C)C[C@H](N(C)C)[C@H]2O)[C@](C)(OC)C[C@@H](C)C(=O)[C@H](C)[C@@H](O)[C@]1(C)O [clarithromycin]	variable and not reproducible	–
Cc1ncc([N+](=O)[O-])n1CCO [metronidazole]	variable and not reproducible	–
CO[C@H]1/C=C/O[C@@]2(C)Oc3c(C)c(O)c4c(O)c(c5c(nc6cc(C)ccn65)c4c3C2=O)NC(=O)/C(C)=C\C=C\[C@H](C)[C@H](O)[C@@H](C)[C@@H](O)[C@@H](C)[C@H](OC(C)=O)[C@@H]1C [rifaximin]	variable and not reproducible	–
CN[C@H](CC(C)C)C(=O)N[C@H]1C(=O)N[C@@H](CC(N)=O)C(=O)N[C@H]2C(=O)N[C@H]3C(=O)N[C@H](C(=O)N[C@H](C(=O)O)c4cc(O)cc(O)c4-c4cc3ccc4O)[C@H](O)c3ccc(c(Cl)c3)Oc3cc2cc(c3O[C@@H]2O[C@H](CO)[C@@H](O)[C@H](O)[C@H]2O[C@H]2C[C@](C)(N)[C@H](O)[C@H](C)O2)Oc2ccc(cc2Cl)[C@H]1O [vancomycin]	–	inefficient
neomycin	variable and not reproducible	–
